This passage reports IC50, inhibition and Kd results from patent EP3057951B1, “METHYLENE LINKED QUINOLINYL MODULATORS OF ROR-GAMMA-T” (Janssen Pharmaceutica NV, priority 2013, dated 2015).

Each structure is given as a SMILES string. Values joined by “and” are separate entries in the source; they are usually repeats but may differ in a detail not shown here. Equal values may be shown once. Where a name gives a salt, the structure may show the parent alone.

As a reminder, the IC50 is the concentration that gives 50% inhibition. The Kd is the constant that tells how readily two partners part at equilibrium.

Assay [1] concerns the target T1, wild type human RORγt LBD (Homo sapiens, UniProt P51449).
T1 construct: expressed in transfected cells; host or cells: HEK293T
T1 sequence (P51449 258-518): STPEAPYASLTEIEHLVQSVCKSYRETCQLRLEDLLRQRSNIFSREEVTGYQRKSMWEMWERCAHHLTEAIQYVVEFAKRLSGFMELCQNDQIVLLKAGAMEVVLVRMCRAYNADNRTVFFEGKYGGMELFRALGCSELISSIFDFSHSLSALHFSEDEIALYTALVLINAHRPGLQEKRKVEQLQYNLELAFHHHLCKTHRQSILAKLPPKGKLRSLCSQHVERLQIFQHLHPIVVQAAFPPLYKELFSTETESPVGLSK
Briefly: RORγt (LBD) Reporter Assay (GAL4-luciferase, HEK293T cells). Conditions: for IC50: HEK293T cells, value after the comma with ∼, > or < could not be included in the average; for inhibition at 6 µM: HEK-293T, read-out: RORγt (LBD) Reporter Assay, % inhibition @ 6 µM, 6 µM compound concentration. The format is cell-based. (Reporter assays use an easily measured gene product as a stand-in for the process of interest.)

For assay [2], the target named is T2, wild type human RORγt ligand binding domain (RORyt LBD) (Homo sapiens, UniProt P51449).
T2 construct: His-tag (N); TurboTEV protease cleavage site (ENLYFQG) (N); made in house; host or cells: E. coli (pHIS1, modified pET vector)
T2 sequence (P51449 258-518): T1 sequence (P51449 258-518)
Briefly: RORγt ThermoFluor assay (thermal shift, binding affinity KD).

With `COc1nc2ccc(C(O)(c3ccc(C)nc3C)c3cnnn3C)cc2c(Cl)c1Cc1ccc(-n2cccn2)cc1` (stereo not drawn) [Example 17a, (3-(4-(1H-Pyrazol-1-yl)benzyl)4-chloro-2-methoxyquinolin-6-yl)(2,6-dimethylpyridin-3-yl)(1-methyl-1H-1,2,3-triazol-5-yl)methanol], in assay [1], 10 nM corresponded to half-maximal inhibition (IC50) and the inhibition at 6 µM was 99%. Further, the Kd in assay [2] came out at 0.91 nM.

Take `COc1nc2ccc(C(O)(c3ccccc3)C3CCN(C(C)=O)CC3)cc2c(Cl)c1Cc1ccc(-n2cncn2)cc1` (stereo not drawn) [Example 18a, 1-(4-((3-(4-(1H-1,2,4-Triazol-1-yl)benzyl)4-chloro-2-methoxyquinolin-6-yl)(hydroxy)(phenyl)methyl)piperidin-1-yl)ethanone]: in assay [1], half-maximal inhibition (IC50) required 46 nM and the inhibition at 6 µM was determined as 99%. The Kd in assay [2] worked out at 14 nM.

`COc1nc2ccc(C(O)(c3ccc(C)nc3C)c3cnnn3C)cc2c(Cl)c1Cc1ccc(C)cc1` (stereo not drawn) [Example 20a, (4-Chloro-2-methoxy-3-(4-methylbenzyl)quinolin-6-yl)(2,6-dimethylpyridin-3-yl)(1-methyl-1H-1,2,3-triazol-5-yl)methanol]: in assay [1], the IC50 is 40 nM and the inhibition at 6 µM was 91%. The Kd in assay [2] is 1.1 nM.

For `COc1nc2ccc(C(O)(c3sc(C)nc3C)c3cnnn3C)cc2c(Cl)c1Cc1ccc(-n2cccn2)cc1` (stereo not drawn) [Example 21a, (3-(4-(1H-Pyrazol-1-yl)benzyl)4-chloro-2-methoxyquinolin-6-yl)(2,4-dimethylthiazol-5-yl)(1-methyl-1H-1,2,3-triazol-5-yl)methanol], in assay [1], the midpoint of inhibition, the IC50, lay at 6 nM and the inhibition at 6 µM was 101%. Also, the Kd in assay [2] was 0.31 nM.

For the molecule `CCc1nc2ccc(C(O)(c3ccc(C)nc3C)c3cnnn3C)cc2c(Cl)c1Cc1ccc(C(F)(F)F)cc1` (stereo not drawn) [Example 23a, (4-Chloro-2-ethyl-3-(4-(trifluoromethyl)benzyl)quinolin-6-yl)(2,6-dimethylpyridin-3-yl)(1-methyl-1H-1,2,3-triazol-5-yl)methanol], in assay [1], half-maximal inhibition (IC50) was put at 18 nM and the inhibition at 6 µM worked out at 99%. For the same molecule, the dissociation constant Kd in assay [2] was 0.14 nM.

Turning to `COc1nc2ccc(C(O)(c3ccc(C)nc3C)c3cnnn3C)cc2c(Cl)c1Cc1ccc(N(C)C)cc1` (stereo not drawn) [Example 24a, (4-Chloro-3-(4-(dimethylamino)benzyl)-2-methoxyquinolin-6-yl)(2,6-dimethylpyridin-3-yl)(1-methyl-1H-1,2,3-triazol-5-yl)methanol], in assay [1], the midpoint of inhibition, the IC50, lay at 4.6 nM and the inhibition at 6 µM turned out to be 100%. For the same molecule, in assay [2], the Kd was determined as 1.5 nM.

Regarding `Cc1nc2ccc(C(O)(c3ccc(C(F)(F)F)nc3)c3cncn3C)cc2c(Cl)c1Cc1ccc(C(F)(F)F)cc1` (stereo not drawn) [Example 26a, (4-Chloro-2-methyl-3-(4-(trifluoromethyl)benzyl)quinolin-6-yl)(1-methyl-1H-imidazol-5-yl)(6-(trifluoromethyl)pyridin-3-yl)methanol], in assay [1], it took 33 nM to reach half-maximal inhibition (IC50) and the inhibition at 6 µM was found to be 101%. Also, the Kd in assay [2] amounted to 3.1 nM.

Consider `CC(=O)N1CCC(C(O)(c2ccccc2)c2ccc3nc(C)c(Cc4ccc(C(F)(F)F)cc4)c(Cl)c3c2)CC1` (stereo not drawn) [Example 27a, 1-(4-((4-Chloro-2-methyl-3-(4-(trifluoromethyl)benzyl)quinolin-6-yl)(hydroxy)(phenyl)methyl)piperidin-1-yl)ethanone], for which, in assay [1], the IC50 worked out at 4.4 nM and the inhibition at 6 µM amounted to 101%. The Kd in assay [2] worked out at 1.4 nM.

Take `Cc1ccc(C(O)(c2ccc3nc(C)c(Cc4ccc(C(F)(F)F)cc4)c(Cl)c3c2)c2cnnn2C)c(C)n1` (stereo not drawn) [Example 28a, (4-Chloro-2-methyl-3-(4-(trifluoromethyl)benzyl)quinolin-6-yl)(2,6-dimethylpyridin-3-yl)(1-methyl-1H-1,2,3-triazol-5-yl)methanol]: in assay [1], the 50% inhibitory concentration (IC50) was 11 nM and the inhibition at 6 µM came to 99%. The Kd in assay [2] came out at 0.25 nM.

In the case of `COc1nc2ccc(C(O)(c3ccc(C#N)cc3)c3cncn3C)cc2c(Cl)c1Cc1ccc(C(F)(F)F)nc1` (stereo not drawn) [Example 38a, 4-((4-Chloro-2-methoxy-3-((6-(trifluoromethyl)pyridin-3-yl)methyl)quinolin-6-yl)(hydroxy)(1-methyl-1H-imidazol-5-yl)methyl)benzonitrile], in assay [1], 1.9 nM corresponded to half-maximal inhibition (IC50) and the inhibition at 6 µM turned out to be 100%. Moreover, in assay [2], the Kd was determined as 55 nM.

As to `COc1nc2ccc(C(O)(c3ccc(C)nc3C)c3cnnn3C)cc2c(C#N)c1Cc1ccc(C(F)(F)F)nc1` (stereo not drawn) [Example 41a, 6-((2,6-Dimethylpyridin-3-yl)(hydroxy)(1-methyl-1H-1,2,3-triazol-5-yl)methyl)-2-methoxy-3-((6-(trifluoromethyl)pyridin-3-yl)methyl)quinoline-4-carbonitrile], in assay [1], the IC50 turned out to be 24 nM and the inhibition at 6 µM was determined as 99%. Moreover, the Kd in assay [2] worked out at 2.8 nM.

Take `COc1nc2ccc(C(O)(c3cnnn3C)c3cnc(C)n3C)cc2c(Cl)c1Cc1ccc(C(F)(F)F)nc1` (stereo not drawn) [Example 43a, (4-Chloro-2-methoxy-3-((6-(trifluoromethyl)pyridin-3-yl)methyl)quinolin-6-yl)(1,2-dimethyl-1H-imidazol-5-yl)(1-methyl-1H-1,2,3-triazol-5-yl)methanol]: in assay [1], half-maximal inhibition (IC50) required 7.9 nM and the inhibition at 6 µM was found to be 98%. In assay [2], the Kd amounted to 1 nM.

With `COc1nc2ccc(C(O)(c3ccccc3)C3CCN(C(C)=O)CC3)cc2c(Cl)c1Cc1ccc(F)cc1` (stereo not drawn) [Example 50, 1-(4-((4-Chloro-3-(4-fluorobenzyl)-2-methoxyquinolin-6-yl)(hydroxy)(phenyl)methyl)piperidin-1-yl)ethanone], in assay [1], the half-maximal inhibitory concentration (IC50) was around 4000 nM and the inhibition at 6 µM worked out at 82%. Further, in assay [2], the Kd came out at 10 nM.

In the case of `COCCOc1nc2ccc(C(O)(c3ccc(Cl)cc3)c3cncn3C)cc2c(Cl)c1Cc1ccc(-n2cccn2)cc1` (stereo not drawn) [Example 56], in assay [1], half-maximal inhibition (IC50) was put at 450 nM and the inhibition at 6 µM was found to be 101%. Further, the Kd in assay [2] was 200 nM.

As for `CCCCc1nc2ccc(C(O)(c3cccnc3)c3cccc(F)c3)cc2c(Cl)c1Cc1ccc(-n2cccn2)cc1` (stereo not drawn) [Example 60, (3-(4-(1H-Pyrazol-1-yl)benzyl)-2-butyl-4-chloroquinolin-6-yl)(3-fluorophenyl)(pyridin-3-yl)methanol•TFA], in assay [1], the IC50 was 620 nM and ~2000 nM; the inhibition at 6 µM was found to be 83%. The Kd in assay [2] came out at 3100 nM.

Regarding `COc1nc2ccc(C(O)(c3cccnc3)c3cccc(F)c3)cc2c(Cl)c1Cc1ccc(-n2cccn2)cc1` (stereo not drawn) [Example 61, (3-(4-(1H-Pyrazol-1-yl)benzyl)4-chloro-2-methoxyquinolin-6-yl)(3-fluorophenyl)(pyridin-3-yl)methanol], in assay [1], the IC50 was determined as 83 nM and the inhibition at 6 µM was 99%. Also, the Kd in assay [2] was determined as 12 nM.

Regarding `COc1nc2ccc(C(O)(c3ccc(Cl)cc3)c3cccnc3)cc2c(Cl)c1Cc1ccc(-n2cccn2)cc1` (stereo not drawn) [Example 62, (3-(4-(1H-pyrazol-1-yl)benzyl)4-chloro-2-methoxyquinolin-6-yl)(4-chlorophenyl)(pyridin-3-yl)methanol], in assay [1], the IC50 was found to be 120 nM and the inhibition at 6 µM turned out to be 107%. Also, the Kd in assay [2] worked out at 41 nM.

Turning to `COc1ccc(C(O)(c2cccnc2)c2ccc3nc(OC)c(Cc4ccc(-n5cccn5)cc4)c(Cl)c3c2)cc1` (stereo not drawn) [Example 63], in assay [1], the midpoint of inhibition, the IC50, lay at 140 nM and the inhibition at 6 µM worked out at 99%. Further, the Kd in assay [2] turned out to be 68 nM.

Turning to `CC(=O)N1CCC(C(O)(c2ccc(F)cc2)c2ccc3nc(OC(F)F)c(Cc4cncnc4)c(OC(F)F)c3c2)CC1` (stereo not drawn) [Example 72, 1-(4-((2,4-bis(Difluoromethoxy)-3-(pyrimidin-5-ylmethyl)quinolin-6-yl)(4-fluorophenyl)(hydroxy)methyl)piperidin-1-yl)ethanone], in assay [1], inhibition was half-maximal at 1200 nM (IC50) and the inhibition at 6 µM turned out to be 53%. Also, the Kd in assay [2] came out at 1100 nM.

For the molecule `Cn1cncc1C(O)(c1ccc2nc(C(F)(F)F)c(Cc3ccccc3)c(Cl)c2c1)c1ccccn1` (stereo not drawn) [Example 97, (3-Benzyl-4-chloro-2-(trifluoromethyl)quinolin-6-yl)(1-methyl-1H-imidazol-5-yl)(pyridin-2-yl)methanol•TFA], in assay [1], the IC50 was 200 nM and the inhibition at 6 µM is 96%. For the same molecule, the Kd in assay [2] stood at 67 nM.

As for `Cn1cncc1C(O)(c1ccc(Cl)cc1)c1ccc2nc(C(F)(F)F)c(Cc3ccccc3)c(Cl)c2c1` (stereo not drawn) [Example 100, (3-benzyl-4-chloro-2-(trifluoromethyl)quinolin-6-yl)(4-chlorophenyl)(1-methyl-1H-imidazol-5-yl)methanol•TFA], in assay [1], the IC50 came out at 220 nM and the inhibition at 6 µM was determined as 78%. Besides, in assay [2], the Kd came out at 25 nM.

Turning to `Cn1cncc1C(O)(c1ccc(Cl)cc1)c1ccc2nc(C(F)(F)F)c(Cc3ccccc3)c(O)c2c1` (stereo not drawn) [Example 102, 3-Benzyl-6-((4-chlorophenyl)(hydroxy)(1-methyl-1H-imidazol-5-yl)methyl)-2-(trifluoromethyl)quinolin4-ol•TFA], in assay [1], the IC50 was 1900 nM and the inhibition at 6 µM was 94%. In addition, the Kd in assay [2] is 1300 nM.

On to `Cn1cncc1C(O)(c1ccc(Cl)cc1)c1ccc2nc(C(F)(F)F)c(Cc3ccccc3)c(C#N)c2c1` (stereo not drawn) [Example 103, 3-Benzyl-6-((4-chlorophenyl)(hydroxy)(1-methyl-1H-imidazol-5-yl)methyl)-2-(trifluoromethyl)quinoline-4-carbonitrile•TFA], for which, in assay [1], 33 nM corresponded to half-maximal inhibition (IC50) and the inhibition at 6 µM was found to be 81%. Further, the Kd in assay [2] stood at 9.4 nM.
